From PubChem BioAssay (NCI)
Several values for one entry are separate records, joined by “and”; a condition that tells them apart may be missing. Identical values can stand only once.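 Step 1: Grow cells in 96-well plates. Step 2: Expose to compound for 48 hours at 5 concentrations. Step 3: Interpolate endpoints linearly; if unreached, use highest concentration. At the GI50, growth is halved. TGI denotes the concentration required for complete inhibition of growth.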

Columns and labels:
Assay in all cases: NCI anticancer screen, dose series, 48 h
CAKI-1 renal = system: CAKI-1 renal
COLO 205 colon = system: COLO 205 colon
HCT-15 colon = system: HCT-15 colon
IGROV1 ovarian = system: IGROV1 ovarian
NCI-H226 lung = system: NCI-H226 lung
PC-3 prostate = system: PC-3 prostate
SF-268 CNS = system: SF-268 CNS
SF-539 CNS = system: SF-539 CNS
SW-620 colon = system: SW-620 colon
U251 CNS = system: U251 CNS

| SMILES | GI50 (CAKI-1 renal) [µM] | TGI (CAKI-1 renal) [µM] | GI50 (COLO 205 colon) | TGI (COLO 205 colon) | GI50 (HCT-15 colon) | TGI (HCT-15 colon) [µM] | GI50 (IGROV1 ovarian) | TGI (IGROV1 ovarian) | GI50 (NCI-H226 lung) [µM] | TGI (NCI-H226 lung) [µM] | GI50 (PC-3 prostate) | TGI (PC-3 prostate) [µM] | GI50 (SF-268 CNS) | TGI (SF-268 CNS) [µM] | GI50 (SF-539 CNS) | TGI (SF-539 CNS) | GI50 (SW-620 colon) | TGI (SW-620 colon) [µM] | GI50 (U251 CNS) | TGI (U251 CNS) |
| --- | --- | --- | --- | --- | --- | --- | --- | --- | --- | --- | --- | --- | --- | --- | --- | --- | --- | --- | --- | --- |
| CC(C)(C)n1cc(-c2ccnc(NCCNS(=O)(=O)c3ccc(Br)cc3)c2)c(-c2cccc(O)c2)n1 | 2.17 | 6.07 | 1.49 µM | 3.13 µM | 1.35 µM | 2.93 | 1.95 µM | 4.39 µM | 2.07 | 5.32 | 1.46 µM | 4.38 | 2.04 µM | 5.96 | 1.54 µM | 3.11 µM | 1.72 µM | 3.46 | 1.53 µM | 3.29 µM |
| O=C1C=C(Nc2cccc(Br)c2)c2ccccc2C1=O | 4.16 | > 100 | > 100 µM | > 100 µM | 1.33 µM | > 100 | 10.5 µM | 37.5 µM | 21.7 | 99.4 | 8.68 µM | > 100 | 9.01 µM | > 100 | 1.93 µM | 4.56 µM | 0.482 µM | > 100 | 2.74 µM | 22.1 µM |
| Cc1c(C(C)C)cc(OCCO)cc1C(C)C |  | > 100 |  | > 100 µM |  | > 100 |  | > 100 µM |  | > 100 |  | 96.2 |  | > 100 |  | > 100 µM |  | > 100 |  | > 100 µM |
| Cc1ccc([P+](Cc2ccc([N+](=O)[O-])cc2)(c2ccc(C)cc2)c2ccc(C)cc2)cc1 | 18 | 47.1 | 1.65 µM | 3.95 µM | 18.2 µM | 46.2 | 2.53 µM | 14.8 µM | 5.31 | 21.4 | 2.64 µM | 14.3 | 3.45 µM | 14 | 4.06 µM | 15.9 µM | 3.07 µM | 15.4 | 2.56 µM | 12.2 µM |
| COC(=O)[C@H](Cc1ccccc1)NC(=O)c1csc([C@@H](C[C@H](C(C)C)N(C)C(=O)[C@@H](NC(=O)[C@H]2CCCCN2C)C2CC2)OC(C)=O)n1 |  |  | 0.048 µM | 0.362 µM | 0.0915 µM | > 25 | 0.0452 µM | > 25 µM | 2.59 | > 25 | 0.0509 µM | > 25 | 0.111 µM | > 25 | 0.0376 µM | 0.194 µM | 0.0167 µM | > 25 | 0.0669 µM | > 25 µM |
| Nc1ncnc2occ(-c3ccc(NC(=O)Nc4cc(C(F)(F)F)cc(C(F)(F)F)c4)cc3)c12 | 2.6 | 10 | 4.23 µM | 7.96 µM | 2.98 µM | 7.83 | 3.05 µM | 9.94 µM | 0.584 | 4.53 | 3.07 µM | 8.33 | 2.92 µM | 6.66 | 1.06 µM | 5.44 µM | 4.01 µM | 7.61 | 3.28 µM | 6.64 µM |
| Oc1cccc(-c2nc3ccccc3s2)c1 |  | 66 |  | > 100 µM |  | > 100 |  | 63.8 µM |  | 73 |  | > 100 |  | 68.7 |  | > 100 µM |  | > 100 |  | > 100 µM |
| CC1Cc2c(N(C)C)ncnc2N(C)c2ccc(Cl)cc21 (configuration not stated) | 3.12 | > 100 | 2.44 µM | 6.55 µM | 2.83 µM | 85.9 | 8.48 µM | > 100 µM | 11 | 57.8 | 3.41 µM | 81.6 | 8.09 µM | > 100 | 2.93 µM | 12.2 µM | 3.35 µM | > 100 | 4.99 µM | 29.1 µM |
| CCOP(=O)(OCC)/C(C#N)=C\c1cccc2ccccc12 |  | > 100 |  | > 100 µM |  | > 100 |  | > 100 µM |  | > 73.8 |  | > 100 |  | 64.9 |  | > 100 µM |  | > 100 |  | > 100 µM |
| CN1C(=O)c2cc(Cl)nc3c(NC(=O)c4cccc(Cl)c4)c(Cl)c(NC(=O)c4cccc(Cl)c4)c1c23 |  |  | 1.94 µM | 4.01 µM | 0.581 µM | 1.94 | 1.42 µM | 3.15 µM | 2.02 | 4.05 | 1.93 µM | 3.99 | 1.83 µM | 3.73 | 1.67 µM | 3.39 µM | 1.78 µM | 3.93 | 1.82 µM | 3.24 µM |
| Cn1c(=O)n(-c2ccc(C(C)(C)C#N)cc2)c2c3cc(-c4cnc5ccccc5c4)ccc3ncc21 |  | 0.0401 | 0.0231 µM and 0.00593 µM | 0.702 µM and 0.938 µM | < 0.01 µM and 0.00522 µM | > 100 | < 0.01 µM and 0.00363 µM | 0.0258 µM and 0.0381 µM | < 0.001 |  | < 0.01 µM and 0.0063 µM | > 100 | 0.0126 µM and 0.00657 µM and < 0.0109 µM | > 100 | < 0.01 µM and 0.00503 µM | 0.0761 µM and 0.0316 µM and 0.118 µM | 0.0163 µM and 0.00734 µM and < 0.0116 µM | > 100 | < 0.0117 µM and 0.00599 µM and < 0.01 µM | 10.4 µM and > 10 µM and > 100 µM |
| c1ccc2c(c1)nc(NCCN1CCNCC1)c1c3ccccc3[nH]c21 | 0.454 | 2.81 | 0.346 µM | 1.87 µM | 0.176 µM | 0.7 | 0.84 µM | 8.18 µM | 1.2 | 3.91 | 0.356 µM | 1.97 | 0.39 µM | 2.01 | 0.616 µM | 2.2 µM | 0.25 µM | 2.54 | 0.377 µM | 1.94 µM |
| COc1ccc(S(=O)(=O)N/N=C/C(=O)O)cc1 |  | 1230 |  | > 1250 µM |  | 1080 |  | 1060 µM |  | > 1220 |  | > 1250 |  | 975 |  | 1080 µM |  | 1230 |  | 1200 µM |
| COc1ccc2c(c1O)[C@@]13C=C(O)C(=O)C=C1[C@@H](C2)N(C)CC3 |  | > 100 |  | > 100 µM |  | > 100 |  | > 100 µM |  | > 100 |  | > 100 |  | > 100 |  |  |  |  |  | > 100 µM |
